Reference: ChEMBL document CHEMBL1136964, “Nicotinic agonist binding site mapped by methionine- and tyrosine-scanning coupled with azidochloropyridinyl photoaffinity labeling” (J Med Chem, 2009)
pKd: −log10 of the molar value.

Columns and labels:
Type in all cases: cell-based
[1] = Displacement of [3H]epibatidine from Aplysia californica AchBP I118M mutant expressed in HEK293S cells by scintillation proximity assay
[2] = Displacement of [3H]epibatidine from Aplysia californica AchBP V108M mutant expressed in HEK293S cells by scintillation proximity assay
[3] = Displacement of [3H]epibatidine from Aplysia californica AchBP A107M, M116L, Y195F mutant expressed in HEK293S cells by scintillation proximity assay
[4] = Displacement of [3H]epibatidine from Aplysia californica AchBP I106M, M116L, Y195F mutant expressed in HEK293S cells by scintillation proximity assay
[5] = Displacement of [3H]epibatidine from Aplysia californica AchBP I118M, M116L mutant expressed in HEK293S cells by scintillation proximity assay
[6] = Displacement of [3H]epibatidine from Aplysia californica AchBP S114M, M116L, Y195F mutant expressed in HEK293S cells by scintillation proximity assay
[7] = Displacement of [3H]epibatidine from Aplysia californica AchBP Y195F mutant expressed in HEK293S cells by scintillation proximity assay
[8] = Displacement of [3H]epibatidine from Aplysia californica AchBP A107M, M116L mutant expressed in HEK293S cells by scintillation proximity assay
[9] = Displacement of [3H]epibatidine from Aplysia californica AchBP I106M, M116L mutant expressed in HEK293S cells by scintillation proximity assay
[10] = Displacement of [3H]epibatidine from Aplysia californica AchBP M116L,Y195F mutant expressed in HEK293S cells by scintillation proximity assay
[11] = Displacement of [3H]epibatidine from Aplysia californica AchBP M116Y mutant expressed in HEK293S cells by scintillation proximity assay
[12] = Displacement of [3H]epibatidine from wild type Aplysia californica AchBP expressed in HEK293S cells by scintillation proximity assay
[13] = Displacement of [3H]epibatidine from Aplysia californica AchBP V108M, M116L mutant expressed in HEK293S cells by scintillation proximity assay
[14] = Displacement of [3H]epibatidine from Aplysia californica AchBP I118M, M116L, Y195F mutant expressed in HEK293S cells by scintillation proximity assay
[15] = Displacement of [3H]epibatidine from Aplysia californica AchBP S114M mutant expressed in HEK293S cells by scintillation proximity assay
[16] = Displacement of [3H]epibatidine from Aplysia californica AchBP M116Y, Y195F mutant expressed in HEK293S cells by scintillation proximity assay
[17] = Displacement of [3H]epibatidine from Aplysia californica AchBP S114M, M116L mutant expressed in HEK293S cells by scintillation proximity assay
[18] = Displacement of [3H]epibatidine from Aplysia californica AchBP M116L mutant expressed in HEK293S cells by scintillation proximity assay
[19] = Displacement of [3H]epibatidine from Aplysia californica AchBP V108M, M116L, Y195F mutant expressed in HEK293S cells by scintillation proximity assay
[20] = Displacement of [3H]epibatidine from Aplysia californica AchBP A107M mutant expressed in HEK293S cells by scintillation proximity assay

Structure (SMILES)	pKd [1]	pKd [2]	pKd [3]	pKd [4]	pKd [5]	pKd [6]	pKd [7]	pKd [8]	pKd [9]	pKd [10]	pKd [11]	pKd [12]	pKd [13]	pKd [14]	pKd [15]	pKd [16]	pKd [17]	pKd [18]	pKd [19]	pKd [20]
N#C/N=c1\sccn1Cc1cnc(Cl)c(N=[N+]=[N-])c1	7.15	8.96	7.77	8.26	7.17	8.14	8.64	8.80	8.49	8.52	7.57	8.77	9.34	6.76	8.70	7.72	8.52	8.02	9.77	8.52
N#C/N=c1\sccn1Cc1ccc(Cl)nc1 [THIACLOPRID OLEFIN]	6.62	8.04	7.70	8.31	6.52	7.89	8.51	8.52	8.37	8.33	6.84	8.55	8.32	6.61	8.21	7.22	8.25	7.96	8.74	8.40
[N-]=[N+]=Nc1cc(C2CC3CCC2N3)cnc1Cl (stereo not given) [AZIDOEPIBATIDINE]	8.35	8.82	7.43	7.66	8.32	7.72	8.07	8.09	7.52	8.00	7.47	8.00	9.24	7.92	7.92	7.17	7.82	7.68	9.48	8.14
